Reference: ChEMBL document CHEMBL5113398, “Design and synthesis of new quinoline derivatives as selective C-RAF kinase inhibitors with potent anticancer activity” (Eur J Med Chem, 2022)

Experiments:
[1] = test system: K562; assay: Anticancer activity against human K562 cells assessed as total cell growth inhibition incubated for 48 hrs by SRB assay; type: functional
[2] = test system: IGROV-1; assay: Anticancer activity against human IGROV-1 cells assessed as total cell growth inhibition incubated for 48 hrs by SRB assay; type: functional
[3] = test system: MDA-MB-435; assay: Anticancer activity against human MDA-MB-435 cells assessed as cell growth inhibition incubated for 48 hrs by SRB assay; type: functional
[4] = test system: HOP-92; assay: Anticancer activity against human HOP-92 cells assessed as total cell growth inhibition incubated for 48 hrs by SRB assay; type: functional
[5] = test system: RPMI-8226; assay: Anticancer activity against human RPMI-8226 cells assessed as cell growth inhibition incubated for 48 hrs by SRB assay; type: functional
[6] = test system: PC-3; assay: Anticancer activity against human PC-3 cells assessed as total cell growth inhibition incubated for 48 hrs by SRB assay; type: functional
[7] = test system: SW-620; assay: Anticancer activity against human SW-620 cells assessed as cell growth inhibition incubated for 48 hrs by SRB assay; type: functional
[8] = test system: ACHN; assay: Anticancer activity against human ACHN cells assessed as total cell growth inhibition incubated for 48 hrs by SRB assay; type: functional
[9] = test system: MCF7; assay: Anticancer activity against human MCF7 cells assessed as cell growth inhibition incubated for 48 hrs by SRB assay; type: functional
[10] = test system: EKVX; assay: Anticancer activity against human EKVX cells assessed as cell growth inhibition incubated for 48 hrs by SRB assay; type: functional
[11] = test system: SN12C; assay: Anticancer activity against human SN12C cells assessed as cell growth inhibition incubated for 48 hrs by SRB assay; type: functional
[12] = test system: Malme-3M; assay: Anticancer activity against human Malme-3M cells assessed as cell growth inhibition incubated for 48 hrs by SRB assay; type: functional
[13] = test system: BT-549; assay: Anticancer activity against human BT-549 cells assessed as cell growth inhibition incubated for 48 hrs by SRB assay; type: functional
[14] = test system: UACC-62; assay: Anticancer activity against human UACC-62 cells assessed as cell growth inhibition incubated for 48 hrs by SRB assay; type: functional
[15] = test system: OVCAR-5; assay: Anticancer activity against human OVCAR-5 cells assessed as total cell growth inhibition incubated for 48 hrs by SRB assay; type: functional
[16] = test system: OVCAR-8; assay: Anticancer activity against human OVCAR-8 cells assessed as cell growth inhibition incubated for 48 hrs by SRB assay; type: functional
[17] = test system: LOX IMVI; assay: Anticancer activity against human LOX IMVI cells assessed as cell growth inhibition incubated for 48 hrs by SRB assay; type: functional
[18] = n-Octanol/PBS partition coefficient, logD of the compound at pH 7.4; type: physicochemical
[19] = test system: CCRF-CEM; assay: Anticancer activity against human CCRF-CEM cells assessed as cell growth inhibition incubated for 48 hrs by SRB assay; type: functional
[20] = test system: U-251; assay: Anticancer activity against human U-251 cells assessed as total cell growth inhibition incubated for 48 hrs by SRB assay; type: functional
[21] = test system: SF-268; assay: Anticancer activity against human SF-268 cells assessed as total cell growth inhibition incubated for 48 hrs by SRB assay; type: functional
[22] = test system: SNB-19; assay: Anticancer activity against human SNB-19 cells assessed as total cell growth inhibition incubated for 48 hrs by SRB assay; type: functional
[23] = test system: U-251; assay: Anticancer activity against human U-251 cells assessed as cell growth inhibition incubated for 48 hrs by SRB assay; type: functional
[24] = test system: HCC 2998; assay: Anticancer activity against human HCC 2998 cells assessed as cell growth inhibition incubated for 48 hrs by SRB assay; type: functional
[25] = test system: MDA-MB-231; assay: Anticancer activity against human MDA-MB-231 cells assessed as cell growth inhibition incubated for 48 hrs by SRB assay; type: functional
[26] = test system: OVCAR-5; assay: Anticancer activity against human OVCAR-5 cells assessed as cell growth inhibition incubated for 48 hrs by SRB assay; type: functional
[27] = test system: SF-295; assay: Anticancer activity against human SF-295 cells assessed as total cell growth inhibition incubated for 48 hrs by SRB assay; type: functional
[28] = test system: ACHN; assay: Anticancer activity against human ACHN cells assessed as cell growth inhibition incubated for 48 hrs by SRB assay; type: functional
[29] = test system: MDA-MB-231; assay: Anticancer activity against human MDA-MB-231 cells assessed as total cell growth inhibition incubated for 48 hrs by SRB assay; type: functional
[30] = test system: TK-10; assay: Anticancer activity against human TK-10 cells assessed as cell growth inhibition incubated for 48 hrs by SRB assay; type: functional
[31] = target: Hepatocyte growth factor receptor (Homo sapiens) (UniProt P08581); assay: Inhibition of MET (unknown origin) at 1 uM in presence of ATP by hotspot kinase assay
[32] = test system: NCI-H322M; assay: Anticancer activity against human NCI-H322M cells assessed as total cell growth inhibition incubated for 48 hrs by SRB assay; type: functional
[33] = target: Vascular endothelial growth factor receptor 2 (Homo sapiens) (UniProt P35968); assay: Inhibition of VEGFR2 (unknown origin) at 1 uM in presence of ATP by hotspot kinase assay
[34] = test system: NCI-H226; assay: Anticancer activity against human NCI-H226 cells assessed as total cell growth inhibition incubated for 48 hrs by SRB assay; type: functional
[35] = test system: 786-0; assay: Anticancer activity against human 786-0 cells assessed as cell growth inhibition incubated for 48 hrs by SRB assay; type: functional
[36] = test system: UACC-62; assay: Anticancer activity against human UACC-62 cells assessed as total cell growth inhibition incubated for 48 hrs by SRB assay; type: functional
[37] = test system: HCC 2998; assay: Anticancer activity against human HCC 2998 cells assessed as total cell growth inhibition incubated for 48 hrs by SRB assay; type: functional
[38] = test system: NCI-H322M; assay: Anticancer activity against human NCI-H322M cells assessed as cell growth inhibition incubated for 48 hrs by SRB assay; type: functional
[39] = test system: SF-539; assay: Anticancer activity against human SF-539 cells assessed as cell growth inhibition incubated for 48 hrs by SRB assay; type: functional
[40] = test system: SK-OV-3; assay: Anticancer activity against human SK-OV-3 cells assessed as cell growth inhibition incubated for 48 hrs by SRB assay; type: functional
[41] = test system: CCRF-CEM; assay: Anticancer activity against human CCRF-CEM cells assessed as total cell growth inhibition incubated for 48 hrs by SRB assay; type: functional
[42] = test system: TK-10; assay: Anticancer activity against human TK-10 cells assessed as total cell growth inhibition incubated for 48 hrs by SRB assay; type: functional
[43] = test system: CAKI-1; assay: Anticancer activity against human CAKI-1 cells assessed as total cell growth inhibition incubated for 48 hrs by SRB assay; type: functional
[44] = test system: MOLT-4; assay: Anticancer activity against human MOLT-4 cells assessed as total cell growth inhibition incubated for 48 hrs by SRB assay; type: functional
[45] = test system: MDA-MB-468; assay: Anticancer activity against human MDA-MB-468 cells assessed as cell growth inhibition incubated for 48 hrs by SRB assay; type: functional
[46] = test system: PC-3; assay: Anticancer activity against human PC-3 cells assessed as cell growth inhibition incubated for 48 hrs by SRB assay; type: functional
[47] = test system: HCT-116; assay: Anticancer activity against human HCT-116 cells assessed as cell growth inhibition incubated for 48 hrs by SRB assay; type: functional
[48] = test system: NCI-H226; assay: Anticancer activity against human NCI-H226 cells assessed as cell growth inhibition incubated for 48 hrs by SRB assay; type: functional
[49] = test system: M14; assay: Anticancer activity against human M14 cells assessed as cell growth inhibition incubated for 48 hrs by SRB assay; type: functional
[50] = test system: SW-620; assay: Anticancer activity against human SW-620 cells assessed as total cell growth inhibition incubated for 48 hrs by SRB assay; type: functional

Hepatocyte growth factor receptor (Homo sapiens), sequence (P08581 whole entry): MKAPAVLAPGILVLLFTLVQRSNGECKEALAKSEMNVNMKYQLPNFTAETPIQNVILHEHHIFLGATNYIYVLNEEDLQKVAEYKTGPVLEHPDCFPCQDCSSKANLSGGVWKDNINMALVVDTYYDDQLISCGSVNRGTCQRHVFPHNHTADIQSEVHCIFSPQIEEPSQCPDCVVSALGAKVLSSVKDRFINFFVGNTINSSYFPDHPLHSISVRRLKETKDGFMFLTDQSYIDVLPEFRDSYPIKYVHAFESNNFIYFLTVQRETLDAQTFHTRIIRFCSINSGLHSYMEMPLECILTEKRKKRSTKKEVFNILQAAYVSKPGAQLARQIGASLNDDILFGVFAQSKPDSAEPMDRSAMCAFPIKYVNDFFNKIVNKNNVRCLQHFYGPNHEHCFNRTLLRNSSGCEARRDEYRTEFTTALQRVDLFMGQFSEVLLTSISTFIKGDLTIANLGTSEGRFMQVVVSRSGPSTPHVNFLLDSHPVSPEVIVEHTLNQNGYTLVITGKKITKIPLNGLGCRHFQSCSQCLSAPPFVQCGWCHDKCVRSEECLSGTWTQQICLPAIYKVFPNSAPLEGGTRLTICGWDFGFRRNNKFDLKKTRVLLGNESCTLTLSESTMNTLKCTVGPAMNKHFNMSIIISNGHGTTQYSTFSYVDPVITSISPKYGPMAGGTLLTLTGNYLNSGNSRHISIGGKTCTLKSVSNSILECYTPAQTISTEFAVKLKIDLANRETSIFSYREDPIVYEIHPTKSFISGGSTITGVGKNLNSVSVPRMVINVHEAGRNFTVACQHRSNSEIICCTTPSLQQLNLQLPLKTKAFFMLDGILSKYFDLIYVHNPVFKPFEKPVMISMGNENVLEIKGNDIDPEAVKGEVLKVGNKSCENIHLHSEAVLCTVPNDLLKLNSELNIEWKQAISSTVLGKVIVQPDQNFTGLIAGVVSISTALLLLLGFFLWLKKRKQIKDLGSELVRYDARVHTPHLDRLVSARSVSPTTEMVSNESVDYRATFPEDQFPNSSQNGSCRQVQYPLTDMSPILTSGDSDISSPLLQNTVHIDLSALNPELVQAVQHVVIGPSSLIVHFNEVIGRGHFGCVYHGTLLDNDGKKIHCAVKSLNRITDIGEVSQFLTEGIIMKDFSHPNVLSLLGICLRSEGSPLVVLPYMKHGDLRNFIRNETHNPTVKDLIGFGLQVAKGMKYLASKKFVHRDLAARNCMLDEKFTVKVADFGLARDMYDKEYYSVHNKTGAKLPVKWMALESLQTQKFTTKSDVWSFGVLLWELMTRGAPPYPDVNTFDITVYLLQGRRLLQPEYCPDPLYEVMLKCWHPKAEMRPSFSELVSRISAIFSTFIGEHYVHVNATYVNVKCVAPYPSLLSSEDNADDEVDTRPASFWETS
Vascular endothelial growth factor receptor 2 (Homo sapiens), sequence (P35968 whole entry): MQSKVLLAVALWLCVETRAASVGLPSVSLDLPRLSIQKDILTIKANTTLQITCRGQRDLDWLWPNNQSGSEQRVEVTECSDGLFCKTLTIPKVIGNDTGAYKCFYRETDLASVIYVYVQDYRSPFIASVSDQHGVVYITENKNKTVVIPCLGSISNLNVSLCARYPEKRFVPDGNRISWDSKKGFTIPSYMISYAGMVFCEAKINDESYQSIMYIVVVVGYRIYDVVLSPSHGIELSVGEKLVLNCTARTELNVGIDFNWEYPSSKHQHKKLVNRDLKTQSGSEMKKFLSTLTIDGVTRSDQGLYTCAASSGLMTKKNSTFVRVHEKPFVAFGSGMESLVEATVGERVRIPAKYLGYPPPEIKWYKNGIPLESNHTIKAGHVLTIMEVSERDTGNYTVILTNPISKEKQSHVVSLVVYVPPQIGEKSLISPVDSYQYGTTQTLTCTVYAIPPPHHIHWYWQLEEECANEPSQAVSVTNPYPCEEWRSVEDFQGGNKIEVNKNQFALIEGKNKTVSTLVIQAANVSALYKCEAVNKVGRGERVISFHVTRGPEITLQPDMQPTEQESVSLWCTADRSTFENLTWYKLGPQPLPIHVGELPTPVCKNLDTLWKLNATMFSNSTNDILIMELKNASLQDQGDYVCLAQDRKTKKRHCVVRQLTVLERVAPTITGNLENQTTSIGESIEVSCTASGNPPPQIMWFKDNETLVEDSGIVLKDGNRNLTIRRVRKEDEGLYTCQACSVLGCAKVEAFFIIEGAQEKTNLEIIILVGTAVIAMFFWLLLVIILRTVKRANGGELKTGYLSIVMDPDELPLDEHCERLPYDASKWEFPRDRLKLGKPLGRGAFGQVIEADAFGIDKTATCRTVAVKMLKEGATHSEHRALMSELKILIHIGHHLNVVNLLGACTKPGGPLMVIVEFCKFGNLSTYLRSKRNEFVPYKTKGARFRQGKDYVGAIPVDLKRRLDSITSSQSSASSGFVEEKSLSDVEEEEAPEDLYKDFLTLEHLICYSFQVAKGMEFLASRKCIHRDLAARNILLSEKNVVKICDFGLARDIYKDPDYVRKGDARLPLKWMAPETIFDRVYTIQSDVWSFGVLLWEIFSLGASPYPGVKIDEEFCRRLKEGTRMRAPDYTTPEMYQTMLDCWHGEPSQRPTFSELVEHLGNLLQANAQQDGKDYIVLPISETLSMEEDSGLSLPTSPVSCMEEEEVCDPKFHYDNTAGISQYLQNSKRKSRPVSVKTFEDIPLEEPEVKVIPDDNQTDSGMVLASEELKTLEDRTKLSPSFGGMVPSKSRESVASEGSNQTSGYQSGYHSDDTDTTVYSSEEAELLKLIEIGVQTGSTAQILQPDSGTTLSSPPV

SMILES: COc1cc2cc(Oc3ccc(NC(=O)Nc4cc(C(F)(F)F)cc(C(F)(F)F)c4)cc3)c(C)nc2cc1OCCN1CCOCC1
- TGI [1]: 5500 nM
- TGI [2]: 6900 nM
- GI50 [3]: 1900 nM
- TGI [4]: 2710 nM
- GI50 [5]: 840 nM
- TGI [6]: 5160 nM
- GI50 [7]: 1720 nM
- TGI [8]: 5420 nM
- GI50 [9]: 1430 nM
- GI50 [10]: 1640 nM
- GI50 [11]: 1490 nM
- GI50 [12]: 1200 nM
- GI50 [13]: 1870 nM
- GI50 [14]: 1670 nM
- TGI [15]: 7970 nM
- GI50 [16]: 1670 nM
- GI50 [17]: 1460 nM
- logD [18]: 2.91
- GI50 [19]: 1410 nM
- TGI [20]: 2850 nM
- TGI [21]: 8060 nM
- TGI [22]: 7420 nM
- GI50 [23]: 1130 nM
- GI50 [24]: 2090 nM
- GI50 [25]: 1700 nM
- GI50 [26]: 2180 nM
- TGI [27]: 2920 nM
- GI50 [28]: 1530 nM
- TGI [29]: 6450 nM
- GI50 [30]: 3700 nM
- inhibition [31]: 1.04%
- TGI [32]: 6870 nM
- inhibition [33]: 6.34%
- TGI [34]: 6530 nM
- GI50 [35]: 1280 nM
- TGI [36]: 6900 nM
- TGI [37]: 6970 nM
- GI50 [38]: 1820 nM
- GI50 [39]: 1540 nM
- GI50 [40]: 2090 nM
- TGI [41]: 6570 nM
- TGI [42]: 12500 nM
- TGI [43]: 5680 nM
- TGI [44]: 4290 nM
- GI50 [45]: 1220 nM
- GI50 [46]: 1180 nM
- GI50 [47]: 1420 nM
- GI50 [48]: 1600 nM
- GI50 [49]: 1510 nM
- TGI [50]: 7170 nM
